pIC50: −log10 of the molar value. Counter-ions that a name gives are not always drawn. Like-named read-outs stand apart in the source and are kept apart here.
Legend:
[1] = tested on: ip L1210 leukemia; assay: ip-implanted L1210 leukemia in mice;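 on all read-outs here: each mouse received 10^6 L1210 cells intraperitoneally, with drug treatment also given by the i.p. route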; details: for In Vivo Antitumor Activity ILS (increase in lifespan): ip L1210 (10^6 cells), drug i.p. Days 1 and 5 at maximally tolerated dose; for Increase in Lifespan (ILS) or Inhibition of Tumor Growth (TGI): ip L1210 Leukemia, optimal doses and optimal schedules
Procedure: (§2) For in vivo studies L1210 cells were implanted i.p. (10^6 per mouse)
(§3) and drugs were administered i.p. on Days 1 and 5. Increase in lifespan
(§4) (ILS) was based on median survival time of groups of 6 mice treated at th
maximally tolerated dose of the drugs.

[2] = ip-implanted L1210 leukemia in mice; details: mouse, in vivo, ip;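 further: each mouse received 10^6 L1210 cells intraperitoneally, with drug treatment also given by the i.p. route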
Procedure: as §2, §3, §4
maximally tolerated dose of the drugs.

[3] = tested on: L1210 leukemia cells; assay: cells; type: cell-based, mouse
Procedure: Cells were exposed continuously upon cloning into medium containing 0.2 percent Noble agar. After incubation at 37° C. in a CO2 incubator for 3 days, colonies were stained with viable cell specific formazan stain and, 24 hours later, were enumerated by a colony counter (Biotran II, New Brunswick Scientific Co., Edison, N.J.) adjusted to identify colonies of more than 50 cells. The concentration which reduced cloning efficiency by 50 percent IC50) was determined by interpolation.

[4] = tested on: ip colon carcinoma 26; assay: ip-implanted colon carcinoma 26 in mice; type: in vivo, mouse; details: ip Colon Carcinoma 26; optimal doses and optimal schedules
Text: (§5) Tumors used in these studies--P388 leukemia and its doxorbicin--and mitoxanrone-resistant sublines, L1210 leukemia, B16 melanoma, B16 melanoma/F10 subline, M5076 sarcoma and colon carcinoma 26--are maintained by serial transplantation in syngeneic strains of mice. For the leukemias, these tumors are maintained in DBA/2 mice. The M5076 sarcoma, the B16 melanoma and its F10 subline are maintained in C57B1/6 mice and the colon sarcinoma 26 is maintained in BALB/c mice. The leukemias and the M5076 sarcoma are serially transplanted i.p. as ascites cell suspensions while the B16 melanoma lines and the colon carcinoma 26 are serially transplanted as s.c. solid tumors.
(§6) For therapeutic trials, tumors are aseptically removed from donor mice and prepared as suspensions for implantation ip into test animals. The test animals for the colon carcinoma 26 are female BALB/c mice (20-25 gm). The test animals for the other tumor models are syngeneic female F1 hybrid B6D2F1 mice (C57B1/6 x DBA/2). The inoculum level varies with the type of tumor: P388 leukemia is inoculated at 10^6 cells per mouse, L1210 leukemia at 10^5 or 10^6 cells per mouse, M5076 sarcoma at 5×10^6 cells per mouse. For implantation of the B16 melanoma lines and the colon carcinoma 26, s.c. tumors from donor mice are minced and homogenized in loose fitting teflon glass homogenizer to give a tumor brei. The inoculum levels are 0.5 ml of a 10 percent (w:v) brei of the B16 melanoma lines and 0.5 ml of a 5 percent (w:v) brei of colon carcinoma 26. After tumor inoculation, mice randomized to treatment groups comprised of 6-8 mice each. In each experiment, there are three groups of untreated control mice. Drugs are dissolved or suspended in appropriate aqueous vehicles and given by a variety of routes and schedules of administration over a range of dose levels. Animals are housed in shoebox cages and are monitored daily for mortality for 30 (L1210), 45 (P388) or 60 (B16, M5076, colon 26) days.

[5] = Aqueous solubility; type: physicochemical
[6] = tested on: ip B16 melanoma/F10 subline; details: ip B16 Melanoma/F10 Subline; optimal doses and optimal schedules
Text: as §5, §6

[7] = tested on: sc Lewis lung carcinoma; type: in vivo, mouse; details: sc Lewis Lung Carcinoma; optimal doses and optimal schedules
Text: (§1) The inoculum varies with the tumor.

[8] = tested on: sc Madison lung carcinoma; assay: sc-implanted Madison lung carcinoma in mice; type: in vivo, mouse; details: sc Madison Lung Carcinoma; optimal doses and optimal schedules
Text: as §1

[9] = tested on: ip B16 melanoma; details: ip B16 Melanoma; optimal doses and optimal schedules
Text: as §5, §6

[10] = tested on: ip P388 leukemia; details: ip P388 Leukemia; optimal doses and optimal schedules
Procedure: Increase in lifespan (ILS) is based on median survival time of groups of 6 mice. Net tumor cell kill (NCK) is calculated from median survival time by standard methods, since survival time is a linear function of the log tumor cell burden.
Animals were implanted ip with 10^6 cells. Increase in lifespan (ILS) is based on median survival time of groups of 6 mice relative to untreated controls. Long-term survivors were tumor-free on Day 45.
as §5, §6

[11] = tested on: sc colon carcinoma 26; assay: sc-implanted colon carcinoma 26 in mice; type: in vivo, mouse; details: sc Colon Carcinoma 26; optimal doses and optimal schedules
Text: as §1

[12] = tested on: sc M5076 sarcoma; assay: sc-implanted M5076 sarcoma in mice; type: in vivo, mouse; details: sc M5076 Sarcoma; optimal doses and optimal schedules
Text: as §1

[13] = tested on: sc B16 melanoma/F10 subline; assay: sc-implanted B16 melanoma/F10 subline in mice; type: in vivo, mouse; details: sc B16 Melanoma/F10 Subline; optimal doses and optimal schedules
Text: as §1

[14] = tested on: iv P388 leukemia; details: iv P388 Leukemia; optimal doses and optimal schedules
Text: (§7) Tumors used in these studies P388 leukemia, L1210 leukemia and Lewis lung carcinoma--are maintained by serial transplantation in syngeneic strains of mice, DBA/2 for the leukemias and C57B1/6 for Lewis lung carcinoma. The leukemias are serially transplanted i.p. as ascites cell suspensions while the Lewis lung carcinoma is serially transplanted as a s.c. solid tumor.
(§8) For therapeutic trials, tumors were aseptically removed from donor mice and prepared as suspensions for implantation into test animals which for each tumor are syngeneic female F1 hybrid B6D2F1 mice (C57B1/6×DBA/2). The inoculum level varies with the type of tumor: P388 leukemia is inoculated at 10^6 cells per mouse, L1210 leukemia at 10^5 or 10^6 cells per mouse, and Lewis lung carcinoma at 0.25 ml of a 10 percent (w:v) brei. […] After tumor inoculation, mice are randomized to treatment groups of 6 to 8 mice each. In each experiment, there are three groups of untreated control mice.
(§9) Drugs are dissolved or suspended in appropriate aqueous vehicles and given i.p. or i.v. on various treatment schedules over a range of dosage levels. Animals are housed in shoebox cages and monitored daily for mortality for 30 (L1210), 45 (P388) or 60 (Lewis lung) days.

[15] = tested on: sc mammary adenocarcinoma 16/c; assay: in vivo; set-up: species or system mouse; details: sc Mammary Adenocarcinoma 16/c; optimal doses and optimal schedules
Text: as §1

[16] = tested on: ip M5076 sarcoma; assay: ip-implanted M5076 sarcoma in mice; type: in vivo, mouse; details: ip M5076 Sarcoma; optimal doses and optimal schedules
Text: as §5, §6

[17] = tested on: sc ADJ-PC6 plasmacytoma; assay: sc-implanted ADJ-PC6 plasmacytoma in mice; type: in vivo, mouse; details: sc ADJ-PC6 Plasmacytoma; optimal doses and optimal schedules
Procedure: (§10) Inhibition of tumor growth (TGI) is based on mean tumor volume of groups of 7 or 8 mice relative to untreated controls. Tumors were measured between Days 12 and 19 (except Day 24 for Colon 51 and Day 31 for Colon 38).
(§11) Tumors used in these studies are maintained by serial transplantation in syngeneic strains of mice C57BL/6 for Lewis lung carcinoma, B16 melanoma and its F10 subline, M5076 sarcoma and colon adenocarcinoma 38; BALB/c for colon carcinoma 26, ADJ-PC6 plasmacytoma Madison lung carcinoma and colon adenocarcinoma 51, C3H for mammary adenocarcinoma 16/c. With the exception of the M5076 sarcoma, which is maintained as a i.p ascites cell suspension, all of the tumors were serially transplanted as s.c. solid tumors.
(§12) For therapeutic trials, tumors were aseptically removed from donor mice and prepared for implantation s.c. into test animals. The test animals for Lewis lung carcinoma, B16 melanoma and its F10 subline, M5076 sarcoma and colon adenocarcinoma 38 are syngeneic female F1 hybrid B6D2F mice (C57B1/6×DBA/2). ADJ-PC6 plasmacytoma and colon carcinoma 26 are evaluated in female BALB/c mice. Madison lung carcinoma and colon adenocarcinoma 51 are evaluated in syngeneic female F1 hybrid CD2F1 mice (BALB/c×DBA/2). Mammary adenocarcinoma 16/c is evaluated in female C3H mice. The inoculum varies with the tumor. Colon adenocarcinomas 38 is implanted as 2 mm fragments by trochar. M5076 sarcoma and ADJ-PC6 plasmacytoma are implanted as cell suspensions at 5×10^6 and 2×10^6 cells per mouse, respectively. Colon carcinoma 26, colon adenocarcinoma 51, Lewis lung carcinoma, Madison lung carcinoma and B16 melanoma and its F10 subline are implanted as tumor breis prepared as described above in a volume of 0.5 ml. The brei concentration was 10 percent (w:v) except for colon carcinoma 26 for which the brei concentration was 5 percent (w:v). After tumor inoculation, mice are randomized to treatment groups of 7 or 8 mice. In each experiment, there are three groups of untreated control mice.
(§13) Drugs are dissolved or suspended in appropriate aqueous vehicles and given by a variety of routes of administration and treatment schedules over a range of dosage levels. Animals are housed in shoebox cages and are monitored daily for mortality. […] Time for tumor measurement is dependent on the different rates of tumor growth of the different tumors: the most rapidly growing tumors such as the Lewis and Madison lung tumors, B16 melanoma and its F10 subline were measured between Days 12 and 16. The slower growing tumors were measured at later time points--17 days for M5076 sarcoma, 16 or 19 days for mammary adenocarcinoma 16/c, 19 days for ADJ-PC6 plasmacytoma and colon carcinoma 26, 24 days for colon adenocarcinoma 51, and 31 days for colon adenocarcinoma 38.

[18] = tested on: iv L1210 leukemia; details: iv L1210 Leukemia; optimal doses and optimal schedules
Text: Animals were inoculated iv with 10^6 cells. Increase in lifespan (ILS) is based on median survival time of groups of 6 mice relative to untreated controls.
The protocols utilized for the evaluation of the antitumor activity of Formula (I) compounds are well established and widely utilized by those skilled in the art of assessing the activity of drugs in preclinical tumor models. These studies generally follow the protocols established by the National Cancer Institute as described by Geran et al., Cancer Chemotherapy Reports, Part 3, Vol. 3, 1-103, 1972.
as §7, §8, §9

[19] = reported by Wani et al., J. Med. Chem., 30, 1774 (1987); cited from earlier work
[20] = tested on: sc colon adenocarcinoma 51; type: in vivo, mouse; details: sc Colon Adenocarcinoma 51; optimal doses and optimal schedules
Text: as §1

[21] = tested on: sc colon adenocarcinoma 38; details: sc Colon Adenocarcinoma 38; optimal doses and optimal schedules
Procedure: as §10, §11, §12, §13

[22] = tested on: sc B16 melanoma; details: sc B16 Melanoma; optimal doses and optimal schedules
Text: Inhibition of tumor growth (TGI) is based on mean tumor volume of groups of 7 or 8 mice relative to untreated controls.
as §11, §12, §13
For highly metastatic tumors including: Lewis and Madison lung tumors, colon carcinoma 26 and B16 melanoma and its F10 subline, tumor-bearing mice are monitored for survival time as well. For the less mestastatic tumor models, tumor-bearing mice are killed following tumor measurement. In this setting, an increase in lifespan of ≥30 percent is considered to be evidence of drug activity.

[23] = Mus musculus, L1210, read-out: In Vitro Activity IC50

## CC[C@@]1(O)C(=O)OCc2c1cc1n(c2=O)Cc2cc3c(CN(C)c4ccccc4)c(O)ccc3nc2-1 [9S]
[1]
  In Vivo Antitumor Activity ILS (increase in lifespan): 112%
[2]
  MTD: 42 mg/kg
[3]; [23]
  pIC50: 7.16

## CC[C@@]1(O)C(=O)OCc2c1cc1n(c2=O)Cc2cc3cc(O)ccc3nc2-1 [10-Hydroxycamptothecin, (20 S) 10-Hydroxycamptothecin, reference compound]
[4]
  Increase in Lifespan (ILS) or Inhibition of Tumor Growth (TGI): Curative
[5]
  solubility in water / aqueous vehicles: insolubility in aqueous vehicles
[6]
  Increase in Lifespan (ILS) or Inhibition of Tumor Growth (TGI): 100 % ILS
[7]
  Increase in Lifespan (ILS) or Inhibition of Tumor Growth (TGI): 4 % TGI
[8]
  Increase in Lifespan (ILS) or Inhibition of Tumor Growth (TGI): 33 % TGI
[9]
  Increase in Lifespan (ILS) or Inhibition of Tumor Growth (TGI): 95 % ILS
[10]
  Increase in Lifespan (ILS) or Inhibition of Tumor Growth (TGI): Curative
[11]
  Increase in Lifespan (ILS) or Inhibition of Tumor Growth (TGI): 37 % TGI
[12]
  Increase in Lifespan (ILS) or Inhibition of Tumor Growth (TGI): 66 % TGI
[1]
  In Vivo Antitumor Activity ILS (increase in lifespan): 94%
  Increase in Lifespan (ILS) or Inhibition of Tumor Growth (TGI): 94 % ILS
[2]
  MTD: 9 mg/kg
[13]
  Increase in Lifespan (ILS) or Inhibition of Tumor Growth (TGI): 58 % TGI
[14]
  Increase in Lifespan (ILS) or Inhibition of Tumor Growth (TGI): 40 % ILS
[15]
  Increase in Lifespan (ILS) or Inhibition of Tumor Growth (TGI): 61 % TGI
[16]
  Increase in Lifespan (ILS) or Inhibition of Tumor Growth (TGI): 98 % ILS
[17]
  Increase in Lifespan (ILS) or Inhibition of Tumor Growth (TGI): 76 % TGI
[18]
  Increase in Lifespan (ILS) or Inhibition of Tumor Growth (TGI): 100 % ILS
[3]; L1210 suspension culture, continuous exposure, cloning into soft agar, read-out: In Vitro Activity IC50
  pIC50: 7.74

## CCOCc1c(O)ccc2nc3c(cc12)Cn1c-3cc2c(c1=O)COC(=O)[C@]2(O)CC [10S, (20 S) 9-Ethoxymethyl-10-hydroxycamptothecin]
[1]
  In Vivo Antitumor Activity ILS (increase in lifespan): 131%
[2]
  MTD: 25 mg/kg
[3]; [23]
  pIC50: 7.32

## CCC1(O)C(=O)OCc2c1cc1n(c2=O)Cc2cc3ccc(N)cc3nc2-1 (stereo not drawn) [11-amino]
[19]
  activity in an assay for antitumor activity: active

## CCC1(O)C(=O)OCc2c1cc1n(c2=O)Cc2cc3ccc(CN)cc3nc2-1 (stereo not drawn) [11-aminomethyl analog]
[19]
  activity in an assay for antitumor activity: inactive

## CCC1(O)C(=O)OCc2c1cc1n(c2=O)Cc2cc3ccc(C#N)cc3nc2-1 (stereo not drawn) [11-cyano]
[19]
  activity in an assay for antitumor activity: active

## CCC1(O)C(=O)OCc2c1cc1n(c2=O)Cc2cc3ccc([N+](=O)[O-])cc3nc2-1 (stereo not drawn) [11-nitro]
[19]
  activity in an assay for antitumor activity: active

## CC[C@@]1(O)C(=O)OCc2c1cc1n(c2=O)Cc2cc3c(CNC4CCCCC4)c(O)ccc3nc2-1 [11S]
[1]
  In Vivo Antitumor Activity ILS (increase in lifespan): > 200%
[2]
  MTD: 25 mg/kg
[3]; [23]
  pIC50: 7.25

## CC[C@@]1(O)C(=O)OCc2c1cc1n(c2=O)Cc2cc3c(CNCCN(C)C)c(O)ccc3nc2-1 [12S, (20 S) 9-N,N-Dimethylaminoethylaminomethyl-10-hydroxycamptothecin Dihydrochloride Salt]
[1]
  In Vivo Antitumor Activity ILS (increase in lifespan): 94%
[2]
  MTD: > 42 mg/kg
[3]; [23]
  pIC50: 7.31

## CC[C@@]1(O)C(=O)OCc2c1cc1n(c2=O)Cc2cc3c(CSCCN(C)C)c(O)ccc3nc2-1 [14S, (20 S) 9-N,N-Dimethylaminoethylthiomethyl-10-hydroxycamptothecin Hydrochloride Salt]
[1]
  In Vivo Antitumor Activity ILS (increase in lifespan): 112%
[2]
  MTD: 42 mg/kg
[3]; [23]
  pIC50: 7.92

## CC[C@@]1(O)C(=O)OCc2c1cc1n(c2=O)Cc2cc3c(CN(C)C)cccc3nc2-1 [15S, (20S) 9-Dimethylaminomethylcamptothecin]
[1]
  In Vivo Antitumor Activity ILS (increase in lifespan): 88%
[2]
  MTD: 15 mg/kg
[3]; [23]
  pIC50: 7.19

## CC[C@@]1(O)C(=O)OCc2c1cc1n(c2=O)Cc2cc3cc(C#N)ccc3nc2-1 [16S, 10-Cyanocamptothecin]
[1]
  In Vivo Antitumor Activity ILS (increase in lifespan): 100%
[2]
  MTD: 3 mg/kg
[3]; [23]
  pIC50: 7.10

## CC[C@@]1(O)C(=O)OCc2c1cc1n(c2=O)Cc2cc3c(CC#N)c(O)ccc3nc2-1 [17S, (20S) 10-Hydroxy-9-cyanomethylcamptothecin]
[1]
  In Vivo Antitumor Activity ILS (increase in lifespan): > 200%
[2]
  MTD: 12 mg/kg
[3]; [23]
  pIC50: 6.40

## CC[C@@]1(O)C(=O)OCc2c1cc1n(c2=O)Cc2cc3c(CN4CCOCC4)cccc3nc2-1 [18S, (20S) 9-Morpholinomethylcamptothecin]
[1]
  In Vivo Antitumor Activity ILS (increase in lifespan): 144%
[2]
  MTD: 13 mg/kg
[3]; [23]
  pIC50: 6.16

## CC[C@@]1(O)C(=O)OCc2c1cc1n(c2=O)Cc2cc3cc(CN)ccc3nc2-1 [20S, (20S) 10-Aminomethylcamptothecin Acetate salt]
[1]
  In Vivo Antitumor Activity ILS (increase in lifespan): 112%
[2]
  MTD: 92 mg/kg
[3]; [23]
  pIC50: 7.05

## CC[C@@]1(O)C(=O)OCc2c1cc1n(c2=O)Cc2cc3c(CCN)c(O)ccc3nc2-1 [22S, (20S) 10-Hydroxy-9-aminoethylcamptothecin Acetate Salt]
[1]
  In Vivo Antitumor Activity ILS (increase in lifespan): 75%
[2]
  MTD: 100 mg/kg
[3]; [23]
  pIC50: 6.44

## CC[C@@]1(O)C(=O)OCc2c1cc1n(c2=O)Cc2cc3ccccc3nc2-1 [Camptothecin]
[4]
  Increase in Lifespan (ILS) or Inhibition of Tumor Growth (TGI): 50 % ILS
[5]
  solubility in water / aqueous vehicles: insolubility in aqueous vehicles
[6]
  Increase in Lifespan (ILS) or Inhibition of Tumor Growth (TGI): 68 % ILS
[7]
  Increase in Lifespan (ILS) or Inhibition of Tumor Growth (TGI): 92 % TGI
[20]
  Increase in Lifespan (ILS) or Inhibition of Tumor Growth (TGI): 75 % TGI
[8]
  Increase in Lifespan (ILS) or Inhibition of Tumor Growth (TGI): 63 % TGI
[9]
  Increase in Lifespan (ILS) or Inhibition of Tumor Growth (TGI): 36 % ILS
[10]
  Increase in Lifespan (ILS) or Inhibition of Tumor Growth (TGI): Curative
[11]
  Increase in Lifespan (ILS) or Inhibition of Tumor Growth (TGI): 66 % TGI
[12]
  Increase in Lifespan (ILS) or Inhibition of Tumor Growth (TGI): 100 % TGI
[1]
  Increase in Lifespan (ILS) or Inhibition of Tumor Growth (TGI): 172 % ILS
[21]
  Increase in Lifespan (ILS) or Inhibition of Tumor Growth (TGI): 100 % TGI
[22]
  Increase in Lifespan (ILS) or Inhibition of Tumor Growth (TGI): 78 % TGI
[13]
  Increase in Lifespan (ILS) or Inhibition of Tumor Growth (TGI): 90 % TGI
[14]
  Increase in Lifespan (ILS) or Inhibition of Tumor Growth (TGI): 75 % ILS
[15]
  Increase in Lifespan (ILS) or Inhibition of Tumor Growth (TGI): 99 % TGI
[16]
  Increase in Lifespan (ILS) or Inhibition of Tumor Growth (TGI): 81 % ILS
[17]
  Increase in Lifespan (ILS) or Inhibition of Tumor Growth (TGI): 100 % TGI
[18]
  Increase in Lifespan (ILS) or Inhibition of Tumor Growth (TGI): 136 % ILS

Source: US5004758A, “Water soluble camptothecin analogs useful for inhibiting the growth of animal tumor cells” (priority 1988, dated 1991)
